According to patent publication US20120252801A1, “ANTIFUNGAL COMPOUNDS” (Katholieke Universiteit Leuven, K.U.Leuven R&D, priority 2009, published 2012):
≈ marks a conversion by molar mass, not a printed value.

Columns and labels:
C. albicans SC5314 [1] = assay: Minimal fungicidal concentration (MFC) against C. albicans; format: cell-based; conditions: Candida albicans, 24 h at 37° C. in PBS, less than 1% survival relative to DMSO control
Protocol: (§1) Two-fold dilution series of the compounds were prepared in 50% DMSO. 5 μl of these series were added to 95 μl PBS buffer inoculated with 1/500 cells of an overnight culture of either C. albicans, C. glabrata or C. krusei (final DMSO conc 2%). 2% DMSO served as negative control. After 24 h incubation at 37° C. of these cultures with the antifungal compounds in PBS, the cell cultures were plated on YPD agar and colony forming units (CFUs) were determined after incubation of the plates for 2 days. MFC was determined as the minimal concentration of a compound resulting in less than 1% survival of the yeast culture relative to the DMSO control.

C. glabrata = assay: Minimal fungicidal concentration (MFC) against C. glabrata; format: cell-based, Candida glabrata; conditions: Nakaseomyces glabratus; 24 h at 37° C. in PBS; less than 1% survival relative to DMSO control
Protocol: as §1

A. fumigatus = assay: Minimal inhibitory concentration (MIC) against A. fumigatus; format: cell-based; conditions: Aspergillus fumigatus; minimal concentration that inhibits growth
Aspergillus flavus = assay: Minimal inhibitory concentration (MIC) against A. flavus; format: cell-based; conditions: 24 h at 25° C. in ½ PDB, minimal concentration that inhibits growth
Protocol: (§2) To determine the MIC and MFC of a compound against Aspergillus flavus, Fusarium oxysporum or F. culmorum, a 2-fold dilution series of the compounds of the invention was incubated with the corresponding spore suspension in ½ PDB (potato dextrose broth, Difco) (2×10^4 spores/ml). […] MFC was determined as the minimal concentration of a compound resulting in less than 1% survival of the fungal culture relative to the DMSO control.

Fusarium oxysporum = assay: Minimal inhibitory concentration (MIC) against F. oxysporum; format: cell-based; conditions: 24 h at 25° C. in ½ PDB, minimal concentration that inhibits growth
Protocol: as §2

HepG2 cells = assay: Cellular cytostatic and/or cytotoxic effect on HepG2 cells; format: cell-based
Protocol: Evaluation of the cytostatic and/or cytotoxic effect of compounds on certain specific eukaryotic cells is a standard procedure and well known to the person skilled in the art. The effect of a selection of compounds of the invention on the proliferation of HepG2 cells was measured.

C. albicans SC5314 [2] = assay: C. elegans model for C. albicans infection; format: in vivo; conditions: different concentrations; FIG. 1
Protocol: The in vivo efficacy of the compounds was assessed in a C. elegans model for Candida infection as described by Breger et al., 2007 (Breger, J., et al. 2007. PLoS Pathog. 3:[…]). To this end, L4 larvae of a double mutant (glp-[…]) of C. elegans were used and fed for 4 h on C. albicans SC5314 agar plates (YPD agar plates on the surface inoculated with 100 μl of an overnight culture in YPD and incubated for 16 h at 37° C.). Worms were collected and washed with M9 buffer containing 3 g/L KH2PO4, 6 g/L Na2HPO4, 5 g/L NaCl, 1 mM MgSO4, 10 μg/mL cholesterol and 100 μg/mL Kanamycin. Forty-to-fifty worms were suspended in 1 mL in each well of 24-well microtiterplates, in the presence or absence (DMSO control) of the compounds of the invention (at different concentrations). Survival of the worms was monitored daily. The percentage survival of the worms in the presence or absence of antifungal compounds was calculated each day relative to the survival at day 0. Data are means of duplicate measurements and experiments were performed at least twice. As positive controls for efficacy testing, amphotericin B (10 μg/ml) and miconazole (10 μg/ml) in DMSO can be used.

C. albicans SC5314 [3] = assay: Mouse model for Candidiasis, fungal burden in the kidney; format: in vivo, BALB/c mice; conditions: 10 mg/kg intraperitonealy, once or twice a day; kidneys 5 days after infection; FIG. 2
From the text: An assay for in vivo efficacy measurement using mouse model for Candidiasis Fungal burden in the kidney of infected mice was used to evaluate the (prophylactic and/or therapeutic) activity of the compounds of the invention in murine models of infection by C. albicans, as described in the prior art (Tavares P M et al. Antimicrob Agents Chemother. 2008 December; 52(12):4522-5; Clemons K V, D A Stevens, J Antimicrob. Chemother. 2001; 47:183-186; Okawa Yet al., Biol Pharm Bull 2007, 30:1870-1873). In general, mice can be inoculated intravenously via lateral tail vein with 2×10^5 to […] C. albicans yeast cells suspended in saline. The compounds can be administered (for example intravenously or intraperitonealy or orally) before (for example 1 hour before) or after (for example 16 hours after) the challenge with C. albicans. After this first injection, four similar subsequent injections can be made with 24 h or other intervals. […] 100 μl-samples can be plated onto solid brain heart infusion (BHI) plates and C. albicans CFU (colony forming units) are counted after 2 days.
More specifically, the in vivo experiment was performed as following (in accordance with Tavares P M et al. Antimicrob Agents Chemother. 2008 December; 52(12):4522-5). […] 100 μl-samples were plated onto solid brain heart infusion (BHI) plates and C. albicans CFU (colony forming units) were counted after 2 days. […]

| MIC (A. fumigatus) [µg/mL] | MIC (Aspergillus flavus) [µg/mL] | MIC (Fusarium oxysporum) [µg/mL] | SMILES | MFC (C. albicans SC5314 [1]) [µg/mL] | MFC (C. glabrata) [µg/mL] | LD30 48 h (lethal dose for 30% of the cells in culture) (HepG2 cells) [µM] | % survival of C. albicans infected C. elegans (C. albicans SC5314 [2]) | activity against Candida albicans infection (CFU from kidneys) (C. albicans SC5314 [3]) |
| --- | --- | --- | --- | --- | --- | --- | --- | --- |
| 3.12 (≈ 9.1 µM) | 25 (≈ 72.8 µM) | 50 (≈ 146 µM) | CCN1CC(C)(C)OC(=O)C1CC(=O)Nc1ccc2c(ccn2C)c1 (centres unmarked) [CPD-07, 2-(4-ethyl-6,6-dimethyl-2-oxomorpholin-3-yl)-N-(1-methyl-1H-indol-5-yl)acetamide] | 12.5 (≈ 36.4 µM) | 50 (≈ 146 µM) | >25 |  |  |
| 3.12 (≈ 9.22 µM) | 50 (≈ 148 µM) | 50 (≈ 148 µM) | CCN1CC(C)(C)OC(=O)C1CC(=O)NCc1cccc(Cl)c1 (centres unmarked) [CPD-49, N-(3-chlorobenzyl)-2-(4-ethyl-6,6-dimethyl-2-oxomorpholin-3-yl)acetamide] | 6.25 (≈ 18.4 µM) | 6.25 (≈ 18.4 µM) | >25 |  |  |
| 6.25 (≈ 18.4 µM) | 25 (≈ 73.8 µM) | 50 (≈ 148 µM) | CCN1CC(C)(C)OC(=O)C1CC(=O)NCc1ccc(Cl)cc1 (centres unmarked) [CPD-08, N-(4-chlorobenzyl)-2-(4-ethyl-6,6-dimethyl-2-oxomorpholin-3-yl)acetamide] | 12.5 (≈ 36.9 µM) | 12.5 (≈ 36.9 µM) | >25 |  |  |
| 12.5 (≈ 33.5 µM) | 50 (≈ 134 µM) | 50 (≈ 134 µM) | CCN1CC(C)(C)OC(=O)C1CC(=O)NCc1c(Cl)cccc1Cl (centres unmarked) [CPD-51, N-(2,6-dichlorobenzyl)-2-(4-ethyl-6,6-dimethyl-2-oxomorpholin-3-yl)acetamide] | 12.5 (≈ 33.5 µM) | 25 (≈ 67 µM) | >25 |  |  |
| 1.6 (≈ 4.81 µM) | 12.5 (≈ 37.6 µM) | 50 (≈ 150 µM) | CCN1CC(C)(C)OC(=O)C1CC(=O)Nc1ccc(C(C)C)cc1 (centres unmarked) [CPD-06, 2-(4-ethyl-6,6-dimethyl-2-oxomorpholin-3-yl)-N-(4-isopropylphenyl)acetamide] | 12.5 (≈ 37.6 µM) | 25 (≈ 75.2 µM) | >25 | increase in survival | strong activity |
| 25 (≈ 80.5 µM) | 50 (≈ 161 µM) | 50 (≈ 161 µM) | CCN1CC(C)(C)OC(=O)C1CC(=O)NCc1cccs1 (centres unmarked) [CPD-22, 2-(4-ethyl-6,6-dimethyl-2-oxomorpholin-3-yl)-N-(thiophen-2-ylmethyl)acetamide] | 25 (≈ 80.5 µM) | 50 (≈ 161 µM) | >25 |  |  |
